Assay [1] deals with Euglena gracilis. Conditions: for absorbance of the Euglena gracilis culture solution: 680 nm; for effect on growth of Euglena gracilis (in words): acetic acid or sodium acetate 0.05-0.25% (w/v) in nutrient medium. As for the experimental part:
A nutrient medium for the cultivation of Euglena gracilis (prepared with triple-distilled water, KH2PO4, citrate, MgSO4·3H2O, vitamin B1, vitamin B6, vitamin B12, vitamin H, yeast extract, peptone, and dextrose) was autoclaved at 121° C. for 15 minutes. Sodium acetate (CH3COONa) was then added to the prepared nutrient medium at a concentration of 0.05% (w/v), and an inoculum of Euglena gracilis (KCTC AG40099) was introduced. The culture was incubated at 130 rpm, 28° C., and under light conditions of 100 μE photons/m^2/s. Growth was measured by monitoring absorbance at a wavelength of 680 nm.
The experiment was conducted in the same manner as in Example 11, except that acetic acid was added instead of sodium acetate.
The experiment was conducted in the same manner as in Comparative Example 2,except that acetic acid was added to the prepared nutrient medium at concentrations of 0.1% (w/v) (Comparative Example 3), 0.15% (w/v) (Comparative Example 4), 0.2% (w/v) (Comparative Example 5), and 0.25% (w/v) (Comparative Example 6), instead of sodium acetate.

Assay [2] deals with Euglena gracilis. In words: Growth of Euglena gracilis in peracetic acid-treated medium with sodium bicarbonate (absorbance 680 nm). Format: cell-based. The following applies: PAA 0.05% (w/v) with or without sodium bicarbonate 0.05-0.3% (w/v).
Procedure: The growth of Euglena was measured by monitoring absorbance at a wavelength of 680 nm.
Where [3] appears, read: Table 3, acetic acid added, cultivation time 0 Day.
Setting [4] is: Table 3, acetic acid added, cultivation time 1 Day.
Where [5] appears, read: Table 4, sodium acetate added, cultivation time 0 Day.
Setting [6] is: Table 4, sodium acetate added, cultivation time 1 Day.
Where [7] appears, read: Table 4, sodium acetate added, cultivation time 2 Days.
The mark [8] stands for this setting: Table 4, sodium acetate added, cultivation time 4 Days.
Where [9] appears, read: Table 4, sodium acetate added, cultivation time 5 Days.

The structures appear in SMILES notation. Read-outs that look alike come from different tables or passages of the source.

Regarding `CC(=O)O` [Comparative Example 4, acetic acid], the “absorbance of the Euglena gracilis culture solution” value (“absorbance” for short) with Euglena gracilis [1] (setting [3]) is 1.831 AU; with Euglena gracilis [1] (setting [4]), 1.598 AU.

Regarding `CC(=O)[O-].[Na+]` [Example 14, sodium acetate], the “absorbance” value was 1.3602 AU in the assay on Euglena gracilis [1] (setting [5]); 2.1565 AU with Euglena gracilis [1] (setting [6]); 3.709 AU in the assay on Euglena gracilis [1] (setting [7]); 7.624 AU in the assay with Euglena gracilis [1] (setting [8]); 8.665 AU in the assay with Euglena gracilis [1] (setting [9]).

As for `CC(=O)[O-].[Na+]` [Example 11, sodium acetate], the “absorbance” value in the assay on Euglena gracilis [1] (setting [5]) is listed as 1.33 AU; with Euglena gracilis [1] (setting [6]), 2.2345 AU; with Euglena gracilis [1] (setting [7]), 3.898 AU; in the assay with Euglena gracilis [1] (setting [8]), 8.511 AU; in the assay on Euglena gracilis [1] (setting [9]), 9.852 AU.

Consider `CC(=O)O` [Comparative Example 2, acetic acid], for which the “absorbance” value in the assay on Euglena gracilis [1] (setting [3]) is 1.3738 AU; in the assay with Euglena gracilis [1] (setting [4]) it was 2.1945 AU; in the assay on Euglena gracilis [1] (Table 3, acetic acid added, cultivation time 2 Days), 3.929 AU; with Euglena gracilis [1] (Table 3, acetic acid added, cultivation time 4 Days), 10.34 AU; in the assay with Euglena gracilis [1] (Table 3, acetic acid added, cultivation time 5 Days) it was 11.063 AU. In addition, in the assay on Euglena gracilis [1], the “effect on growth of Euglena gracilis (in words)” value is listed as “no inhibitory effect”.

Turning to `CC(=O)O` [Comparative Example 5, acetic acid], the “absorbance” value with Euglena gracilis [1] (setting [3]) is recorded as 1.686 AU; in the assay on Euglena gracilis [1] (setting [4]), 1.5025 AU.

As for `CC(=O)[O-].[Na+]` [Example 15, sodium acetate], the “absorbance” value in the assay on Euglena gracilis [1] (setting [5]) was 1.4034 AU; with Euglena gracilis [1] (setting [6]), 2.1945 AU; with Euglena gracilis [1] (setting [7]), 3.803 AU; with Euglena gracilis [1] (setting [8]) it was 7.369 AU; in the assay on Euglena gracilis [1] (setting [9]) it was 8.405 AU.

As to `CC(=O)[O-].[Na+]` [Example 12, sodium acetate], the “absorbance” value in the assay on Euglena gracilis [1] (setting [5]) was 1.316 AU; with Euglena gracilis [1] (setting [6]) it was 2.1825 AU; with Euglena gracilis [1] (setting [7]), 3.969 AU; with Euglena gracilis [1] (setting [8]), 7.739 AU; in the assay with Euglena gracilis [1] (setting [9]), 8.442 AU.

For `CC(=O)O` [Comparative Example 3, acetic acid], the “absorbance” value in the assay with Euglena gracilis [1] (setting [3]) is listed as 1.8372 AU; in the assay with Euglena gracilis [1] (setting [4]), 1.712 AU.

For the molecule `CC(=O)[O-].[Na+]` [sodium acetate], in the assay with Euglena gracilis [1], the “effect on growth of Euglena gracilis (in words)” value is “does not inhibit the growth of Euglena”.

On to `CC(=O)[O-].[Na+]` [Example 13, sodium acetate], for which the “absorbance” value in the assay with Euglena gracilis [1] (setting [5]) was determined as 1.3882 AU; with Euglena gracilis [1] (setting [6]), 2.1605 AU; in the assay on Euglena gracilis [1] (setting [7]) it was 3.861 AU; in the assay on Euglena gracilis [1] (setting [8]), 7.52 AU; with Euglena gracilis [1] (setting [9]), 8.561 AU.

`CC(=O)O` [Comparative Example 6, acetic acid]: the “absorbance” value came to 1.7554 AU in the assay with Euglena gracilis [1] (setting [3]) and 1.5195 AU with Euglena gracilis [1] (setting [4]).

For `O=C([O-])O.[Na+]` [sodium bicarbonate], the “growth of Euglena gracilis (in words)” value in the assay on Euglena gracilis [2] is “does not specifically affect the growth of Euglena gracilis”.

For the origin of these results see patent US20250084033A1, “METHOD OF PROMOTING PERACETIC ACID DECOMPOSITION USING METAL COMPOUND, AND METHOD OF CULTURING MICROORGANISMS USING SAME” (N-CELL CO.,LTD, priority 2022, published 2025).
